Experimental data taken from patent publication US5229368A, “Composition for prevention and (or) treatment of Aids” (Fujisawa Pharmaceutical Co., Ltd., priority 1987, dated 1993).

What was measured:
Friend leukemia virus [1] = assay: Test 3: survival rate of mice in lethal FLV infection; assay type: in vivo; conditions: 42 days
Description: Friend leukemia virus FLV) was prepared as a 20% suspension of infected C3H/HeN spleen in Hank's balanced saline and 0.2 ml/head of the FLV preparation was challenged intraperitoneally to mice in groups of 12. The viruses were challenged in amounts large enough to cause death within a short time.
FK-565 (1, 0.01 mg/kg) was given intravenously once a day on days 1, 4, 7, 11, 14, 18, 21 and 25 (total: 8 doses).
The mice were given the two drugs according to the same dosing schedules.

Friend leukemia virus [2] = assay: Test 2: splenomegaly by FLV in mice, same method as Test 1 with other doses; assay type: in vivo, C3H/HeN mice; conditions: day 14
Description: (§1) Animals: Male C3H/HeN strain mice aged 5 weeks were used in groups of 10. The animals were housed in an isolation room at 21°-25° C. and supplied with food and water at libitum.
(§2) Virus and Induction of splenomegaly: Friend leukemia virus (FLV) was prepared as a 10% suspension of infected C3H/HeN spleen in Hank's balanced saline and was originally supplied by Kitazato University. Following centrifugation (7,000 rpm for 20 mins.) the virus preparation was frozen and stored at -70° C. 0.2 ml/head of FLV diluted 2-, 5-, or 10-fold to induce infection of varying severity was challenged intraperitoneally in mice.
Dosing schedules: FK-565 was given intravenously or orally in doses of 0.01 mg/kg to 1 mg/kg 4 hours after challenge and once on days 3, 7, 11 (total 4 doses).

Friend leukemia virus [3] = assay: Test 1: splenomegaly by Friend leukemia virus in mice (severe infection); assay type: in vivo, C3H/HeN mice
Description: as §1
as §2, with “mice. […]” for “mice.”

[4] = system: Rauscher murine leukemia virus complex(RLV); conditions: mice infected with RLV; cited from earlier work
[5] = therapeutic dose of AZT; cited from earlier work
[6] = FK-565 0.01 mg/kg i.v., AZT 0 mg/kg
[7] = FK-565 1 mg/kg i.v., AZT 0 mg/kg
[8] = FK-565 0.01 mg/kg i.v. alone, day 14
[9] = FK-565 0.1 mg/kg i.v. alone, day 14
[10] = FK-565 0.1 mg/kg p.o. alone, day 14

## Cc1cn([C@H]2C[C@H](N=[N+]=[N-])[C@@H](CO)O2)c(=O)[nH]c1=O [AZT, 3'-Azido-3'-deoxythymidine]
Friend leukemia virus [1]; AZT 4 mg/kg/time i.p., FK-565 0
  survival rate: 0
Friend leukemia virus [1]; AZT 20 mg/kg/time i.p., FK-565 0
  survival rate: 25
Friend leukemia virus [1]; AZT 100 mg/kg/time i.p., FK-565 0
  survival rate: 50
Friend leukemia virus [2]; AZT 0.63 mg/kg i.p. alone
  (%) inhibition of splenomegaly: 33.3%
  Spleen: 633 ± 67.6 mg
Friend leukemia virus [2]; AZT 2.5 mg/kg i.p. alone
  (%) inhibition of splenomegaly: 38.3%
  Spleen: 605 ± 134.9 mg
Friend leukemia virus [2]; AZT 10 mg/kg i.p. alone
  (%) inhibition of splenomegaly: 49.3%
  Spleen: 519 ± 130.6 mg
Friend leukemia virus [2]; AZT 40 mg/kg i.p. alone
  (%) inhibition of splenomegaly: 81.1%
  Spleen: 267 ± 51.6 mg
Friend leukemia virus [2]; AZT 160 mg/kg i.p. alone
  (%) inhibition of splenomegaly: 97.4%
Friend leukemia virus [3]; AZT 5 mg/kg i.p. alone, day 14
  Inhibition %: 24.8%
  Spleen weight: 1107.8 ± 158.3 mg
Friend leukemia virus [3]; AZT 20 mg/kg i.p. alone, 27 doses, FLV 2-fold dilution, 14 days after infection
  Spleen weight: 944.0 ± 104.9 mg
Friend leukemia virus [3]; AZT 20 mg/kg i.p. alone, day 14
  Inhibition %: 38.1%
[4]
  survival time in infected mice: prolong significantly the survival time
[5]
  side effects: anemia, leukopenia, neutropenia and occasional thrombocytopenia

## CCCCCCC(=O)N[C@H](CCC(=O)N[C@@H](CCC[C@@H](N)C(=O)O)C(=O)N[C@H](C)C(=O)O)C(=O)O [FK-565]
Friend leukemia virus [1]; FK-565 0.01 mg/kg/time i.v., AZT 0
  survival rate: 8
Friend leukemia virus [1]; FK-565 1 mg/kg/time i.v., AZT 0
  survival rate: 17
Friend leukemia virus [2]; [6]
  (%) inhibition of splenomegaly: 19.6%
  Spleen: 750 ± 119.0 mg
Friend leukemia virus [2]; [7]
  (%) inhibition of splenomegaly: 55.3%
  Spleen: 487 ± 47.3 mg
Friend leukemia virus [3]; [8]
  Inhibition %: 36.4%
  Spleen weight: 1047.0 ± 106.1 mg
Friend leukemia virus [3]; [9]
  Inhibition %: 37.0%
  Spleen weight: 1038.0 ± 176.8 mg
Friend leukemia virus [3]; [10]
  Inhibition %: 27.8%
  Spleen weight: 1133.0 ± 170.0 mg
Friend leukemia virus [3]; FK-565 1 mg/kg i.v. alone, 4 doses, day 14
  Spleen weight: 947.0 ± 124.1 mg
Friend leukemia virus [3]; FK-565 1 mg/kg i.v. alone, day 14
  Inhibition %: 46.5%
Friend leukemia virus [3]; FK-565 1 mg/kg p.o. alone, 4 doses, day 14
  Spleen weight: 984.0 ± 144.8 mg
Friend leukemia virus [3]; FK-565 1 mg/kg p.o. alone, day 14
  Inhibition %: 38.9%
